Measured values as given in ChEMBL document CHEMBL5291721, “A preclinical secondary pharmacology resource illuminates target-adverse drug reaction associations of marketed drugs” (Nat Commun, 2023).

Assays:
[1] = biological target: Kappa-type opioid receptor (Homo sapiens, UniProt P41145)
[2] = biological target: Beta-2 adrenergic receptor (Homo sapiens, UniProt P07550)
[3] = biological target: T1, Alpha-1A adrenergic receptor (Homo sapiens, UniProt P35348); assay type: functional, cell-based
T1 sequence (P35348 whole entry): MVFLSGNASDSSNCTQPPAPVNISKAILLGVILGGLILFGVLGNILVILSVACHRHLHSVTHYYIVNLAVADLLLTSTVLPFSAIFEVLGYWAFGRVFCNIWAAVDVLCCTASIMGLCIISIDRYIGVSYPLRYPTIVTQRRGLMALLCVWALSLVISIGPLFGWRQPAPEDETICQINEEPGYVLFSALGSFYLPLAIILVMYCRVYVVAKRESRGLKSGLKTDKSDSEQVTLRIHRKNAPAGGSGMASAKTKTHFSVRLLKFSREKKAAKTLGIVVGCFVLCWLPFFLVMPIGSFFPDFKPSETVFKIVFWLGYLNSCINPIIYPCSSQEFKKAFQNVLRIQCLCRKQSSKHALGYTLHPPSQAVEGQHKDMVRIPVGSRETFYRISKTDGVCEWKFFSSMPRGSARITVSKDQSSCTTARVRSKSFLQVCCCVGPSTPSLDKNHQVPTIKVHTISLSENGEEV

[4] = biological target: T1, Alpha-1A adrenergic receptor; assay type: functional, cell-based; remark: listed apart in the source
[5] = biological target: T2, Prostaglandin G/H synthase 1 (Rattus norvegicus, UniProt Q63921); assay type: functional
T2 sequence (Q63921 whole entry): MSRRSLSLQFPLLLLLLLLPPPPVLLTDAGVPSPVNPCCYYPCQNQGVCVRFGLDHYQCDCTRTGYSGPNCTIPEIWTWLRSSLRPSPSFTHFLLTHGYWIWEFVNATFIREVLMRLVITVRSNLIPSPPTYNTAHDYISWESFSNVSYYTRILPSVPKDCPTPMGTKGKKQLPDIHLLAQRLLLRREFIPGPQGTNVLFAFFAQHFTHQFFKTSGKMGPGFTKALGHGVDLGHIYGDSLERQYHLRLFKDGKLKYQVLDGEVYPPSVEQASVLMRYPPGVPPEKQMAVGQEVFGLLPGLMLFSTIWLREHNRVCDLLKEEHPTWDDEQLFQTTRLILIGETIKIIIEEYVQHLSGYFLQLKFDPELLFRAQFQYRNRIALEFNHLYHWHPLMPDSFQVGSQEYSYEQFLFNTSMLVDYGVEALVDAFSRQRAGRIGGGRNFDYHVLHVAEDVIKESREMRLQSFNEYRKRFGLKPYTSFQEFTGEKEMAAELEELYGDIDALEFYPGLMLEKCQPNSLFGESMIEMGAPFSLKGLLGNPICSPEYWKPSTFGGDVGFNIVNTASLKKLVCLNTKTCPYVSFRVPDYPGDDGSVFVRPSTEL

Histamine H2 receptor = Histamine H2 receptor (Homo sapiens, UniProt P25021); assay type: functional, cell-based
Histamine H2 receptor, sequence (P25021 whole entry): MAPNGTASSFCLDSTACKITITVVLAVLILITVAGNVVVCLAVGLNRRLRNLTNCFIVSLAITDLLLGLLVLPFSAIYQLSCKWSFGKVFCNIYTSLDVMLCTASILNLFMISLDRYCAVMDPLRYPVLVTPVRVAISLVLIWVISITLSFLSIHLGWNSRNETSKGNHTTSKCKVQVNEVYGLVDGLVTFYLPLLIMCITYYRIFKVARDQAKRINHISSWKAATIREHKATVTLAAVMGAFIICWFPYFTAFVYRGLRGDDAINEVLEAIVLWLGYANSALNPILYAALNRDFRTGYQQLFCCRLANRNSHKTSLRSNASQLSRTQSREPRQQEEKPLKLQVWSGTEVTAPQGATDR

[6] = biological target: Gamma-aminobutyric acid receptor subunit alpha-1 (Rattus norvegicus, UniProt P62813); assay type: functional
[7] = biological target: Sodium-dependent noradrenaline transporter (Homo sapiens, UniProt P23975)
Sodium-dependent noradrenaline transporter, sequence (P23975 whole entry): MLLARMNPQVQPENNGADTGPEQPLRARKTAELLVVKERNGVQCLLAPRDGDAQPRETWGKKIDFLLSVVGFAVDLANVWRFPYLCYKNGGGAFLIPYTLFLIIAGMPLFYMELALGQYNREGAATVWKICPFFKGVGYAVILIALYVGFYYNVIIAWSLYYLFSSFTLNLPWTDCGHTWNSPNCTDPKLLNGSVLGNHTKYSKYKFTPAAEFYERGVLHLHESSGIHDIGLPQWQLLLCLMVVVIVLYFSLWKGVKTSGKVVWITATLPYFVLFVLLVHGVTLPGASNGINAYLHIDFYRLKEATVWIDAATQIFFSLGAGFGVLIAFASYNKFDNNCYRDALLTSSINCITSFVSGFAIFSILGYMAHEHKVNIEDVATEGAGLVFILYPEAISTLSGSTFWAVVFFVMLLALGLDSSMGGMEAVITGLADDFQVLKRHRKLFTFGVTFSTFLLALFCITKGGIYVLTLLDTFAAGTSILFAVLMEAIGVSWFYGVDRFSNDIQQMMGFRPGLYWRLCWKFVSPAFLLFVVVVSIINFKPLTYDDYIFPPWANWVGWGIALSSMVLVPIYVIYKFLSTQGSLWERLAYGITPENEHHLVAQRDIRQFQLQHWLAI

[8] = biological target: Beta-1 adrenergic receptor (Homo sapiens, UniProt P08588); assay type: functional
Beta-1 adrenergic receptor, sequence (P08588 whole entry): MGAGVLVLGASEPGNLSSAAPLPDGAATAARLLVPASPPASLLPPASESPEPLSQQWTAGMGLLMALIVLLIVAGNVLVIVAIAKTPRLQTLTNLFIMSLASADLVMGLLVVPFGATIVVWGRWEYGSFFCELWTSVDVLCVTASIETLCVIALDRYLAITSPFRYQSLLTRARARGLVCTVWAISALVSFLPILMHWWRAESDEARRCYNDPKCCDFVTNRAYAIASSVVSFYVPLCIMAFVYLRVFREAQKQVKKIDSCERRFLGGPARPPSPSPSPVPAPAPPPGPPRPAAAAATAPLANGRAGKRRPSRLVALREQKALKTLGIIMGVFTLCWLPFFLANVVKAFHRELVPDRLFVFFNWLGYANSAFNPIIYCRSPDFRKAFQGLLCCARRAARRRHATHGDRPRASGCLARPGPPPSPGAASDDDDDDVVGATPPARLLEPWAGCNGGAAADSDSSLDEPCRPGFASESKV

[9] = biological target: Voltage-dependent L-type calcium channel subunit alpha-1C (Rattus norvegicus, UniProt P22002); assay type: functional
[10] = biological target: Delta-type opioid receptor (Homo sapiens, UniProt P41143)
Delta-type opioid receptor, sequence (P41143 whole entry): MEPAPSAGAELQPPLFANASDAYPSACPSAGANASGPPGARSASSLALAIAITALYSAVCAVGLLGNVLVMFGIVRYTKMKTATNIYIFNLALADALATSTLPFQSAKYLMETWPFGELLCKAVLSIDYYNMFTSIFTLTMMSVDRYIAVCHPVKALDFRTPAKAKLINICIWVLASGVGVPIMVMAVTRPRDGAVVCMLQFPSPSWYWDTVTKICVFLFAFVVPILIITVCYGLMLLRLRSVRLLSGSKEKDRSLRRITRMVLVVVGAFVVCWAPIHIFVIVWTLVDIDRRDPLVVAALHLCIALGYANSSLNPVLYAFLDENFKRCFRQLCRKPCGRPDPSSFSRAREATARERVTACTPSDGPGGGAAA

D(3) dopamine receptor = D(3) dopamine receptor (Homo sapiens, UniProt P35462)
D(3) dopamine receptor, sequence (P35462 whole entry): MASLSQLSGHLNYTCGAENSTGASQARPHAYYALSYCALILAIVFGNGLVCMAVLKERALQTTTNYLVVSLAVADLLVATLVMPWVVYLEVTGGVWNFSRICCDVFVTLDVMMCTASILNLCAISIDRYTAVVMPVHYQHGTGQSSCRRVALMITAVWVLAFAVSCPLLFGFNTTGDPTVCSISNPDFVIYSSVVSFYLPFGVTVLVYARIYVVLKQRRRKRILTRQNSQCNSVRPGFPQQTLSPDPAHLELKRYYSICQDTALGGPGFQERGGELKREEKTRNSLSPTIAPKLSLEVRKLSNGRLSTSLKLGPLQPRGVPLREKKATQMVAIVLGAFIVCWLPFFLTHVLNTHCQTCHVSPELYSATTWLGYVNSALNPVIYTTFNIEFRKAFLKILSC

[11] = biological target: 3',5'-cyclic-AMP phosphodiesterase 4D (Homo sapiens, UniProt Q08499); assay type: functional
3',5'-cyclic-AMP phosphodiesterase 4D, sequence (Q08499 whole entry): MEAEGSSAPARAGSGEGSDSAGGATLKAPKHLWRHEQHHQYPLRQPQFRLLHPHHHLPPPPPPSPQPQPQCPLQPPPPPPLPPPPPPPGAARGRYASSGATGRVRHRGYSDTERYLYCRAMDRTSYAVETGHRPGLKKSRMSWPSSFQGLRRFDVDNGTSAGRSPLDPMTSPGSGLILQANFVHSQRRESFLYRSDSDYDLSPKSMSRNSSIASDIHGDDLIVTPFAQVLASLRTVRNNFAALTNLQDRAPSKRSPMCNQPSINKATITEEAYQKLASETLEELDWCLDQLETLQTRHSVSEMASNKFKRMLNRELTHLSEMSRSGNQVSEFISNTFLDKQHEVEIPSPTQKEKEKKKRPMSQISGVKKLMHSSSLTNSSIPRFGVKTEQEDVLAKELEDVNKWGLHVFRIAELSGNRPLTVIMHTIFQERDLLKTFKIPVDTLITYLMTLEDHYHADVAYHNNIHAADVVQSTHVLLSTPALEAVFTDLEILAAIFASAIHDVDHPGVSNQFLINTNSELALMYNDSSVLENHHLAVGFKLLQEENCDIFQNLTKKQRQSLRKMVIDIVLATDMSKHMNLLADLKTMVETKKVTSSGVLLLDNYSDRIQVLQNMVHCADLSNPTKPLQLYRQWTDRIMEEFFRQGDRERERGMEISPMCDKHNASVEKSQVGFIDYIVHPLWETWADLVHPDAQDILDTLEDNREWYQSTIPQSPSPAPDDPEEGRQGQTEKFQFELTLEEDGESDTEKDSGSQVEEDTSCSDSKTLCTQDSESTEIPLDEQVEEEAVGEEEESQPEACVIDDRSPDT

[12] = biological target: T3, 5-hydroxytryptamine receptor 2C (Homo sapiens, UniProt P28335)
T3 sequence (P28335 whole entry): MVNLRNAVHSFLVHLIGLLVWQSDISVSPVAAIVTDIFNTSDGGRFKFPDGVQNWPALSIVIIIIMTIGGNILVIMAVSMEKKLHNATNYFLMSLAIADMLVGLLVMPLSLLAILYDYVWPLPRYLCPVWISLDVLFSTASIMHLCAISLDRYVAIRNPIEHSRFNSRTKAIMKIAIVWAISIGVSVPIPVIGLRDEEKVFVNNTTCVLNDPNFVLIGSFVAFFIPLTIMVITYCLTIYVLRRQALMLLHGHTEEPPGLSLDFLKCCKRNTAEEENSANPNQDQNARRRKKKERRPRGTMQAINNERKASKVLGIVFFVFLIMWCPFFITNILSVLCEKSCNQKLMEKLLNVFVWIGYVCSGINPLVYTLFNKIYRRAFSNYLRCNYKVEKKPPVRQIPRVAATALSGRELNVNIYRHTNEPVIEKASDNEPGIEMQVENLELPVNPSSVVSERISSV

Motilin receptor = Motilin receptor (Homo sapiens, UniProt O43193)
Motilin receptor, sequence (O43193 whole entry): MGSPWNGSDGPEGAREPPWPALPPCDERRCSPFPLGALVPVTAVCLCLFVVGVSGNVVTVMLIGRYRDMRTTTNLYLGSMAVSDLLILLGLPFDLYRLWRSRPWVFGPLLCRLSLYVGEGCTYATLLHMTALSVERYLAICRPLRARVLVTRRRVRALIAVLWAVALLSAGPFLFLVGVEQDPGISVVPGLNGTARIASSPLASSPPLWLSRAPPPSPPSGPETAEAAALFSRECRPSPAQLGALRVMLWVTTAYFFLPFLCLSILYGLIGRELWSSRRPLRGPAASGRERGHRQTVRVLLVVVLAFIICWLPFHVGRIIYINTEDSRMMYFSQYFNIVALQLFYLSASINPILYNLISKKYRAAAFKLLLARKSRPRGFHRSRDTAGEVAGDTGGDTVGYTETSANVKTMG

[13] = biological target: T4, Type-1 angiotensin II receptor (Homo sapiens, UniProt P30556)
T4 sequence (P30556 whole entry): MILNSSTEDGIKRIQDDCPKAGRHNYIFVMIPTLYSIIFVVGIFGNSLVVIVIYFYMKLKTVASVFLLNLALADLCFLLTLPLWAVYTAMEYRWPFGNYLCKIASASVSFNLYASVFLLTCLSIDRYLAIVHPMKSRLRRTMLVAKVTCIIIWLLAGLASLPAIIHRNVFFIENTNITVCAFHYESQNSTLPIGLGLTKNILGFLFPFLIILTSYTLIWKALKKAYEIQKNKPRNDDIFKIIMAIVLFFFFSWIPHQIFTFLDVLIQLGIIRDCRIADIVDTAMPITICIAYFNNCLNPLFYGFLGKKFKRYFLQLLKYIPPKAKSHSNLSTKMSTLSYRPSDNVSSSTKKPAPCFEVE

Vasopressin V2 receptor = Vasopressin V2 receptor (Homo sapiens, UniProt P30518)
Vasopressin V2 receptor, sequence (P30518 whole entry): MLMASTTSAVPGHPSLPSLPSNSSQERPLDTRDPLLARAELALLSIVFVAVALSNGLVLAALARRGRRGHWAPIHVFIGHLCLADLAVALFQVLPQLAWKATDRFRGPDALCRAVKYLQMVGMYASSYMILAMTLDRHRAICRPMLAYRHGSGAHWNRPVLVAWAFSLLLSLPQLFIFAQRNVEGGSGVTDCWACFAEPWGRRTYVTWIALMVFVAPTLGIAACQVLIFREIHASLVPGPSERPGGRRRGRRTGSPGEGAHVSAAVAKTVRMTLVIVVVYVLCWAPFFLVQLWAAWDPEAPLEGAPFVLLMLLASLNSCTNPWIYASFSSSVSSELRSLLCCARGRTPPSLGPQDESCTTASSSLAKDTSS
Note: assay procedure not described here.

Kappa-type opioid receptor, sequence (P41145 whole entry): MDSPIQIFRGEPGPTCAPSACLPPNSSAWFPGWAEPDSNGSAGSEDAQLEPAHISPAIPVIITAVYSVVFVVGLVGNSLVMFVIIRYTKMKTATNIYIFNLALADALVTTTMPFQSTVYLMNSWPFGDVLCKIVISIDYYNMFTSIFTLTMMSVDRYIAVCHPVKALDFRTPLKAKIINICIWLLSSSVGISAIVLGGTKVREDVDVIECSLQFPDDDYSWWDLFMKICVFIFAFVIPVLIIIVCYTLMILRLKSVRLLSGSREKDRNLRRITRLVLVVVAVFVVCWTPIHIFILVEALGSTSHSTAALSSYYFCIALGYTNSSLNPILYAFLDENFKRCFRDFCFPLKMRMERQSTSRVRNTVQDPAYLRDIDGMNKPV
Beta-2 adrenergic receptor, sequence (P07550 whole entry): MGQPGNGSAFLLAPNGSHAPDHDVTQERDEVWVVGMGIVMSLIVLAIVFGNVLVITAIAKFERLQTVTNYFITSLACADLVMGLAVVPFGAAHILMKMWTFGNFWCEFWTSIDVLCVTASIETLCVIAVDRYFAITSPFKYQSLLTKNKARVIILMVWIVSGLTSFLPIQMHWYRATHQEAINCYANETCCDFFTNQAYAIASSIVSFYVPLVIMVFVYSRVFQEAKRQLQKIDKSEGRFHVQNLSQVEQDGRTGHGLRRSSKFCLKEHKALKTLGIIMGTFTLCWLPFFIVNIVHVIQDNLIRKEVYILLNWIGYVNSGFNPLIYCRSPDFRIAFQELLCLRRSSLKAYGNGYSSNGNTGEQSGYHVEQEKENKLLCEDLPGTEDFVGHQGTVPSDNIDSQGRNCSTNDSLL

SMILES | AC50 [1] | AC50 [2] | AC50 [3] | AC50 [4] | AC50 [5] | AC50 (Histamine H2 receptor) | AC50 [6] | AC50 [7] | AC50 [8] | AC50 [9] | AC50 [10] | AC50 (D(3) dopamine receptor) | AC50 [11] | AC50 [12] | AC50 (Motilin receptor) | AC50 [13] | AC50 (Vasopressin V2 receptor)
C1=Cc2cccc(OCC3CNCCO3)c2C1 (configuration not stated) [INDELOXAZINE] | 25 µM | > 30 µM | > 30 µM | > 30 µM | > 30 µM | > 30 µM | > 30 µM | 0.7 µM | > 30 µM | > 30 µM | 22 µM | > 30 µM | > 30 µM | > 10 µM | > 30 µM | > 30 µM | > 30 µM
CCCCCN(C)CCC(O)(P(=O)(O)O)P(=O)(O)O [IBANDRONIC ACID] | > 30 µM | > 30 µM | > 30 µM | > 30 µM | > 30 µM | > 30 µM | > 30 µM | > 30 µM | > 30 µM | > 30 µM | > 30 µM | > 30 µM | > 30 µM | > 30 µM | > 30 µM | 6.2 µM | > 30 µM
O=C(O)Cc1cn(-c2ccccc2)nc1-c1ccc(Cl)cc1 [LONAZOLAC] | > 30 µM | > 30 µM | > 30 µM | > 30 µM | 19 µM | > 30 µM | > 30 µM | > 30 µM | > 30 µM | > 30 µM | > 30 µM | > 30 µM | > 30 µM | > 30 µM | > 30 µM | > 30 µM | > 30 µM
C#C[C@]1(O)CC[C@H]2[C@@H]3CCC4=CCCC[C@@H]4[C@H]3CC[C@@]21C [LYNESTRENOL] | 1.5 µM | > 30 µM | > 30 µM | > 30 µM | > 30 µM | > 30 µM | > 30 µM | > 30 µM | > 30 µM | > 30 µM | > 30 µM | > 30 µM | > 30 µM | > 30 µM | > 30 µM | > 30 µM | > 30 µM
NC(CO)C(=O)NNCc1ccc(O)c(O)c1O (configuration not stated) [BENSERAZIDE] | > 10 µM | > 10 µM | > 30 µM | > 30 µM | > 30 µM | > 10 µM | > 10 µM | > 30 µM | > 10 µM | > 10 µM | 30 µM | > 30 µM | > 30 µM | > 30 µM | > 10 µM | > 30 µM | > 30 µM
CN1C(=O)COc2c(C(=O)NC3CN4CCC3CC4)cc(Cl)cc21 (configuration not stated) [AZASETRON] | > 30 µM | > 30 µM | > 30 µM | > 30 µM | > 30 µM | > 30 µM | > 30 µM | > 30 µM | > 30 µM | > 30 µM | > 30 µM | > 30 µM | 4.1 µM | > 30 µM | > 30 µM | > 30 µM | > 30 µM
